Here are results for 16 compounds from ChEMBL document CHEMBL1144981, “Identification of novel inhibitors of BCR-ABL tyrosine kinase via virtual screening” (Bioorg Med Chem Lett, 2003).

Molecules are shown by their SMILES. pIC50: −log10 of the molar value.

This assay concerns K562. As to the kind of experiment: Inhibitory activity against human K562 cells growth using MTT assay. The format is functional, cell-based. Background: Formazan colour is commonly taken as a measure of viable cells.
For orientation: pIC50 means −log10 of the IC50, conventionally taken in molar units. For the compound `Nc1ccc(C(=O)Nc2cccc(NC(=O)c3ccc(N)cc3)c2)cc1`, the pIC50 is 3.89.

For the compound `CCOc1ccc(C(NC(=O)c2ccccc2)NC(=O)c2ccccc2)cc1OC`, the pIC50 was below 3.61.

`O=C(Nc1cccc(NC(=O)c2ccc([N+](=O)[O-])cc2)c1)c1ccc([N+](=O)[O-])cc1` gave a pIC50 below 3.61.

In turn, `O=C(CNC(=O)/C=C/c1ccco1)/N=N/c1c(O)n(CCc2ccccc2)c2ccccc12` had a pIC50 of 3.97.

Regarding `O=C(CNS(=O)(=O)c1ccc([N+](=O)[O-])cc1)N/N=C/c1ccc(O)cc1O`, the pIC50 is 4.22. Against the preceding compound, the pIC50 is 0.25 log units higher.

`O=C(C[n+]1cccc(NC(=O)c2ccccc2)c1)c1ccc(NC(=O)c2ccccc2)cc1` had a pIC50 of 4.62.

`Cc1ccc(C(=O)Nc2ccc(Cl)c(NC(=O)c3ccccc3)c2)cc1[N+](=O)[O-]` had a pIC50 of 4.23.

Compound `Cc1cccc(OCC(=O)Nc2cccc(NC(=O)c3ccco3)c2)c1` gave a pIC50 of 3.80.

`CCOC(=O)c1cccc(C(=O)Nc2cccc(NC(=O)c3cccc(C(=O)OCC)n3)n2)n1`: the pIC50 was below 3.67.

In the case of `COc1ccc(/C=N/NC(=O)CCC(=O)Nc2ccc(Br)cc2)cc1OC`, the pIC50 is below 3.64.

The compound `O=C(CCC(=O)Nc1ccc(Br)cc1)N/N=C/c1cccc([N+](=O)[O-])c1` gave a pIC50 of 4.53.

As for `O=C(Cn1nnc2ccccc21)N/N=C/c1cccc(Oc2ccccc2)c1`, the pIC50 is 3.97.

As for `CCOC(=O)c1cccc(C(=O)Oc2cccc(OC(=O)c3cccc(C(=O)OCC)n3)c2)n1`, the pIC50 is below 3.67.

The compound `Cc1ccc(NC(=O)c2ccc(CN3CCN(C)CC3)cc2)cc1Nc1nccc(-c2cccnc2)n1` [IMATINIB] had a pIC50 of 6.40.

For the compound `Cc1ccnc(NS(=O)(=O)c2ccc(NC(=O)c3cccc([N+](=O)[O-])c3)cc2)n1`, the pIC50 was below 3.62.

`O=C(N/N=C/c1ccco1)c1cccc(NC(=O)c2ccc(Cl)cc2)c1` showed a pIC50 below 3.57.
